Assays:
[1] = molecular target: ATP-dependent translocase ABCB1 (Homo sapiens, UniProt P08183); experiment: Inhibition of p-glycoprotein in human adriamycin-resistant MCF7 cells assessed as increase of adriamycin accumulation at 20 uM after 1 hr by LC-MS/MS analysis relative to control; format: cell-based; settings: mcf7, 1 h
Alpha-glucosidase MAL12 = Alpha-glucosidase MAL12 (Saccharomyces cerevisiae S288c, UniProt P53341); experiment: Inhibition of yeast alpha-glucosidase using p-NPG as substrate
Alpha-glucosidase MAL12, sequence (P53341 whole entry): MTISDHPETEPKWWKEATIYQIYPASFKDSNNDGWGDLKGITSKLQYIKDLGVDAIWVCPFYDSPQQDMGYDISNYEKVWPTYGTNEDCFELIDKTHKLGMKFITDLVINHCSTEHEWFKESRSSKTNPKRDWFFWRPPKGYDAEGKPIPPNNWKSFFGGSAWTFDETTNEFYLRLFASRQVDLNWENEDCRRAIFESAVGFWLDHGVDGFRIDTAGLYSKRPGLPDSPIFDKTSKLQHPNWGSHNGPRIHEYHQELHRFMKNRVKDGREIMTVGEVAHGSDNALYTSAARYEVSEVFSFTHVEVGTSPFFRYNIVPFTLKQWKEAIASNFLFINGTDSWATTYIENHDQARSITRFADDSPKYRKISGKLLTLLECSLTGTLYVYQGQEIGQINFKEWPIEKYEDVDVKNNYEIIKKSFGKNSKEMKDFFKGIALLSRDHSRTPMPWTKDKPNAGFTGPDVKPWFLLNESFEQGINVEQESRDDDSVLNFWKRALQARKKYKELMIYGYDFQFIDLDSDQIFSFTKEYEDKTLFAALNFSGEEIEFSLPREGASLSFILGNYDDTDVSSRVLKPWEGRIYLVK

ATP-dependent translocase ABCB1, sequence (P08183 whole entry): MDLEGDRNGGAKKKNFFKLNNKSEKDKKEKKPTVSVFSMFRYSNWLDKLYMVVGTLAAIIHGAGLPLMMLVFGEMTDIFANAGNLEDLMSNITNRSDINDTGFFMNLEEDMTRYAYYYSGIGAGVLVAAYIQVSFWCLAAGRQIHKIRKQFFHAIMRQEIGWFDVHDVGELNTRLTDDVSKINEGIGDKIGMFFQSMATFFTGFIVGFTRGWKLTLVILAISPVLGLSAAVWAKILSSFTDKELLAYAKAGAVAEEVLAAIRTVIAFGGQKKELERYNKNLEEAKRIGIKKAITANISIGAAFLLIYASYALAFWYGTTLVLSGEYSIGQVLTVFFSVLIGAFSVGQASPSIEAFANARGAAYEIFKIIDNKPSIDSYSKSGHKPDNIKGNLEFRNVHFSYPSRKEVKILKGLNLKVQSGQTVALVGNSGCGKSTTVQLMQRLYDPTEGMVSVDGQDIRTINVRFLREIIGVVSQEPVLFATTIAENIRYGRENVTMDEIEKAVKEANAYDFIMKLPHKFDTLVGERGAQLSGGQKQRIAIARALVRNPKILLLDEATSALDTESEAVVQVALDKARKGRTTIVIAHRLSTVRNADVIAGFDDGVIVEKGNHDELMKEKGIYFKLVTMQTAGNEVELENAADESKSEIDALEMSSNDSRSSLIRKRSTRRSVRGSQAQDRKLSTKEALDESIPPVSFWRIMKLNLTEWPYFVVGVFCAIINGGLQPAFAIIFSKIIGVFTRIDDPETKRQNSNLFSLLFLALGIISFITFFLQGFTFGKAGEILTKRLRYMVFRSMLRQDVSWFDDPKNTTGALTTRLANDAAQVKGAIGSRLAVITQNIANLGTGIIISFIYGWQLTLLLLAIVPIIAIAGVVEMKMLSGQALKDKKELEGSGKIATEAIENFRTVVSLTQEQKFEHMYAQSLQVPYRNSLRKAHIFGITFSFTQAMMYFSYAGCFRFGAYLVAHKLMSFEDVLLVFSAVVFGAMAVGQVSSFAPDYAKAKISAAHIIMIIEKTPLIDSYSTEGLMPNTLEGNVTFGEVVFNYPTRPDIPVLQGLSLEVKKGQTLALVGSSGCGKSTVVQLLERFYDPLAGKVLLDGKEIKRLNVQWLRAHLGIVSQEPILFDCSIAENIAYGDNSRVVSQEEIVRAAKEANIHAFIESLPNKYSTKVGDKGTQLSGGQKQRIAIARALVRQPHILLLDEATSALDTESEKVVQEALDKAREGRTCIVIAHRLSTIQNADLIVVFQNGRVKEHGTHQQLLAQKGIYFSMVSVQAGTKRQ

| Ratio [1] | IC50 (Alpha-glucosidase MAL12) [µM] | Compound |
| --- | --- | --- |
| 3 |  | CC1(C)C(=O)CC[C@]2(C)C3=C([C@@H](O)C[C@@H]12)[C@]1(C)C(=O)C[C@H]([C@]2(C)CCC(=O)O2)[C@@]1(C)[C@@H](O)C3=O |
| 3 | 91.3 | CC1(C)[C@@H](O)CC[C@]2(C)C3=C([C@@H](O)C[C@@H]12)[C@]1(C)C(=O)C[C@H]([C@]2(C)CCC(=O)O2)[C@@]1(C)C(=O)C3=O |
|  | 81.8 | CC1(C)C(=O)CC[C@]2(C)C3=C(C(=O)C[C@@H]12)[C@]1(C)C(=O)C[C@H]([C@]2(C)CCC(=O)O2)[C@@]1(C)CC3=O |

Further lines, the compound ahead of its results:

| Compound | Ratio [1] | IC50 (Alpha-glucosidase MAL12) [µM] |
| --- | --- | --- |
| C/C(=C\CC[C@@H](C)[C@H]1CC[C@@]2(C)C3=C([C@@H](O)C[C@]12C)[C@@]1(C)CCC(=O)C(C)(C)[C@@H]1CC3=O)C(=O)O | 3 | 119 |
| CC1(C)[C@@H](O)CC[C@]2(C)C3=C([C@@H](O)C[C@@H]12)[C@]1(C)C(=O)C[C@H]([C@]2(C)CCC(=O)O2)[C@@]1(C)[C@H](O)C3=O |  | 41.7 |
| C[C@H](C(=O)O)[C@H]1CC(=O)[C@@]2(C)C3=C(C(=O)C[C@]12C)[C@@]1(C)CCC(=O)C(C)(C)[C@@H]1CC3=O |  | 145 |
| COc1ccc(CCN(C)CCCC(C#N)(c2ccc(OC)c(OC)c2)C(C)C)cc1OC (stereo not given) | 3 |  |
| COC(=O)CC[C@@H](C)[C@H]1CC(=O)[C@@]2(C)C3=C(C(=O)C[C@]12C)[C@@]1(C)CCC(=O)C(C)(C)[C@@H]1CC3=O [METHYL LUCIDENATE F] | 3 |  |

From ChEMBL document CHEMBL3600285, “Inhibitory Effects of Highly Oxygenated Lanostane Derivatives from the Fungus Ganoderma lucidum on P-Glycoprotein and α-Glucosidase” (J Nat Prod, 2015)
